PMC8536575, “Acute effects of the imidacloprid metabolite desnitro-imidacloprid on human nACh receptors relevant for neuronal signaling” (Archives of Toxicology, 2021)

Legend:
[1] = biological target: T1, human α3β4 nAChR (Homo sapiens, UniProt P30926+P32297); test: Two-electrode voltage-clamp recordings, Xenopus laevis oocytes expressing human α3β4 nAChR; format: cell-based
T1 construct: expressed in transfected cells; host or cells: Xenopus laevis oocytes, mRNA injection, 0.33 ng α3 and 3.33 ng β4

[2] = biological target: T2, human α4β2 (LS) nAChR (Homo sapiens, UniProt P17787+P43681); test: Two-electrode voltage-clamp recordings, Xenopus laevis oocytes expressing human α4β2 (LS) nAChR; format: cell-based
T2 construct: expressed in transfected cells; host or cells: Xenopus laevis oocytes, mRNA injection, 10 ng α4 and 1 ng β2
Description: The human α7 nAChR subunit was cloned in the pCDNA3.1 vector.
For the generation of the mRNA for injection, the plasmid DNAs of α3, α4, β2, and β4 were linearized with the NotI restriction endonuclease (New England Biolabs) and the plasmid DNA of α7 was linearized with the XbaI restriction endonuclease (New England Biolabs). The mRNAs of α3, α4, β2, and β4 were generated by in vitro transcription using the mMESSAGE mMACHINE SP6 Transcription Kit (Invitrogen). For the generation of α7 mRNA, the mMESSAGE mMACHINE T7 Transcription Kit (Invitrogen) was used. For the separation of the DNA and mRNA, a phenol–chloroform extraction (Chomczynski and Sacchi [2006]) was performed. The mRNA was then obtained by ethanol precipitation from the aqueous phase; for quantification, the BioPhotometer (Eppendorf) was used.
The recordings of human α7, α3β4, α4β2, and α4β4 nAChRs expressed in Xenopus laevis oocytes (EcoCyte Bioscience) were performed in two-electrode voltage-clamp mode using the Roboocyte2 system and the corresponding software (version 1.4.1; Multi Channel Systems MCS). Prior to the recordings, the oocytes were maintained at 19 °C in modified Barth’s solution containing [mM]: 88 NaCl, 1 KCl, 0.33 Ca(NO3)2, 0.82 MgSO4, 2.4 NaHCO3, 0.41 CaCl2, 5 Tris, 100 U/ml penicillin, 100 µg/ml streptomycin, pH 7.4.
To express human α7 nAChR, we injected 50 nl of mRNA solution (30 ng mRNA) per oocyte, using the Roboinject and the corresponding software (version 1.2.1; Multi Channel Systems MCS). […]
The baseline correction of voltage-clamp oocyte recordings was performed with the Roboocyte2 + software (version 1.4.3; Multi Channel Systems MCS, Germany). The maximal current influx and further analysis were executed in scripts written in R. In the antagonist experiments with oocytes, the maximal inward current was determined for the last response of each period (control, three antagonist concentrations, and washout).

[3] = Clearance study in a hepatocyte co-culture system; conditions: human, hepatocytes
Description: Renal clearance for DN-IMI was assumed to be governed only by passive processes, with both filtration and passive reabsorption being accounted for. Passive permeability was scaled from the predicted permeability in the intestine (Peff 0.37 10-4 cm/s) accounting for the surface area of the proximal tubules in the kidney.

[4] = Blood/plasma ratio and free fraction (PBTK input parameters); format: in vitro ADME
[5] = system: mice; conditions: ref Chao and Casida [1997], Tomizawa et al. [2000], [2001]; cited from earlier work

T1 sequence (P32297 32-505): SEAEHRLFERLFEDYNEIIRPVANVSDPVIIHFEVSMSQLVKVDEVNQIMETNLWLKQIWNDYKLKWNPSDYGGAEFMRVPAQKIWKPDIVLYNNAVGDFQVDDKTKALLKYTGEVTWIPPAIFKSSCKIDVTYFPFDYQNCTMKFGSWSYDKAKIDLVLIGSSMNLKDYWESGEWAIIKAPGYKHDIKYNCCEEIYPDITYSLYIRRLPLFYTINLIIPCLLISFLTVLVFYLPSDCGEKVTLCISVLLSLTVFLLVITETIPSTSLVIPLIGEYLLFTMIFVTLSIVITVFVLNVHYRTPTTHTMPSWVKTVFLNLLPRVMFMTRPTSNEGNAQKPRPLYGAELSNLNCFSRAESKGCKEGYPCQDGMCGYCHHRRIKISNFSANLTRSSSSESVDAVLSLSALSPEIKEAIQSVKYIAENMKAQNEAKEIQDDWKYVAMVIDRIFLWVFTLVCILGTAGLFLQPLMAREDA
T1 sequence (P30926 22-498): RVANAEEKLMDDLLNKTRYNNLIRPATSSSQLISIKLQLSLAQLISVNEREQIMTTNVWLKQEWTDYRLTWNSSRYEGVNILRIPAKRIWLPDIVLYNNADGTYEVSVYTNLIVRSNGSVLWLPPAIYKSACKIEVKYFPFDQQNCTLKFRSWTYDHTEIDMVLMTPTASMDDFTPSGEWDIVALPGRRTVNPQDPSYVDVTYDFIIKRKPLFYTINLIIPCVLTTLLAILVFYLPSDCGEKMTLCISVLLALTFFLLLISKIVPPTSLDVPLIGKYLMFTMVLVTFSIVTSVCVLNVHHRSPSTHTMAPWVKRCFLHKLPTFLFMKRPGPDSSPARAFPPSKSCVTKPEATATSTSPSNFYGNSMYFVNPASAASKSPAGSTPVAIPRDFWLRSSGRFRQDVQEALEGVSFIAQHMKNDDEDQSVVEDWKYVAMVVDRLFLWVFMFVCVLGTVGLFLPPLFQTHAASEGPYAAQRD
T2 sequence (P43681 27-627): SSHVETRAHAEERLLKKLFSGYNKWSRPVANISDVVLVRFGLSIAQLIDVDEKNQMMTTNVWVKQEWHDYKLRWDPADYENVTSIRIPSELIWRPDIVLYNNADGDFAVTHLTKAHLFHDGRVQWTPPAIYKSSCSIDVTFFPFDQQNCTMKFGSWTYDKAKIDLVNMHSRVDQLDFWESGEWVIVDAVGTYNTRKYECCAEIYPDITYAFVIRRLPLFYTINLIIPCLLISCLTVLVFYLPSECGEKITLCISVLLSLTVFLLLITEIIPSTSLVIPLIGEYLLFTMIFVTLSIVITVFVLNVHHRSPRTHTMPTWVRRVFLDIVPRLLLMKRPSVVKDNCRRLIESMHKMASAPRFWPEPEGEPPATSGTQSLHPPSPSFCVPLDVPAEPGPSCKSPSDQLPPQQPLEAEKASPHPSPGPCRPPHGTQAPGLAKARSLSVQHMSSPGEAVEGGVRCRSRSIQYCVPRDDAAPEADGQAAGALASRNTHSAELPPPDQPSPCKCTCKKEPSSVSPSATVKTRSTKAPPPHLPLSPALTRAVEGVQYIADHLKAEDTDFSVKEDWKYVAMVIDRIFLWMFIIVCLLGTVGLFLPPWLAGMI
T2 sequence (P17787 26-502): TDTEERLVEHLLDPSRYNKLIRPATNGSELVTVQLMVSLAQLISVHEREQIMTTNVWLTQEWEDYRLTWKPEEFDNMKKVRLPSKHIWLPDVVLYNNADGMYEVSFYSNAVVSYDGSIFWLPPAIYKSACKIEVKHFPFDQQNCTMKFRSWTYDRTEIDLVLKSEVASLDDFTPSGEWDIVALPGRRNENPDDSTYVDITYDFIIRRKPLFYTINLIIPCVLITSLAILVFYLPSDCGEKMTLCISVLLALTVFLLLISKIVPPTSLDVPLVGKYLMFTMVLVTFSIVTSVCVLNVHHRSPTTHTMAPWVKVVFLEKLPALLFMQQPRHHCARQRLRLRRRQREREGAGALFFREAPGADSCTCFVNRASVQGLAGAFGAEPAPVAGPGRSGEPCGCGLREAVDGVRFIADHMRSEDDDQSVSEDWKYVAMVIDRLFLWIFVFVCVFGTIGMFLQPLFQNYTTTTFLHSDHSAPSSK

## NC1=NCCN1Cc1ccc(Cl)nc1 [DN-IMI, desnitro-imidacloprid]
[1]
  EC50: 12.6 µM
[1]; from curve-fitted concentration–response data
  absolute EC25: 5.2 µM
[1]; normalized to nicotine (1 mM)
  estimated maximum: ~ 0.65
[2]; normalized to nicotine (100 µM)
  estimated maximum: ~ 1.22
[2]; read-out: relative pEC50 (inward current amplitude) (converted)
  EC50: 5.01 µM
[3]
  hepatocyte CLint: < 143 µL/min/1e6 cells
[4]; blood and plasma, read-out: Blood/plasma ration [B/P]
  blood plasma ratio: 0.759
[4]; plasma, read-out: Free fraction [fu]
  fraction unbound: 0.841
[5]
  LD50: 6 to 24 mg/kg
